Experimental data as given in article PMC4336331, “Novel Receptor-Derived Cyclopeptides to Treat Heart Failure Caused by Anti-β1-Adrenoceptor Antibodies in a Human-Analogous Rat Model” (PLoS ONE, 2015).
Peptide text beside a SMILES is read from it.

Columns and labels:
heart rate = test: Bisoprolol titration pre-experiments, heart rate; assay type: in vivo, Lewis/CrlBR rats
Experimental: In brief, n = 76 two months old Lewis/CrlBR rats were either s.c. immunised with 50 μg β1EC2/GST-FP, or n = 38 rats were control-injected with 0.9% NaCl (t = 0). To maintain high anti-β1EC2-titers, all immunised rats were boosted with β1EC2/GST-FP (or 0.9% NaCl) every month over 20 months as previously described. Application of the different linear or cyclic β1-AR peptides (corresponding to the primary AA-sequence of either the first (β1EC1) or the 2nd extra-cellular β1-AR loop (β1EC2)) or the β1-receptor blocker bisoprolol was initiated either 6 weeks after the 1st immunisation (i.e. 15 days after the 1st boost, prevention-study), or 8.5 months after the 1st immunisation (therapy-study).

β1-AR mRNA = test: qRT-PCR of cardiac β1-AR mRNA, therapy-study; assay type: in vivo, Lewis/CrlBR rats; conditions: qRT-PCR normalised to GAPDH (Fig. 4C)
[1] = system: anti-β1EC2-induced β1-AR/cAMP signaling in HEKβ1-cells; test: FRET cAMP assay (Epac1-camps), blockade of anti-β1EC2-induced signals; assay type: cell-based, human; conditions: HEKβ1-cells with Epac1-camps FRET-sensor; IgG pre-incubated with peptide (Fig. 1F)
Experimental: The effects of anti-β1EC2 on β1AR-mediated intracellular cAMP-production were assessed by measuring fluorescence resonance energy transfer (FRET) in HEKβ1-cells transiently transfected with a FRET-sensor for cAMP, Epac1-camps. The sensor consists of the cAMP-binding protein Epac1 flanked by enhanced cyan or yellow fluorescent protein. […] IgG-preparations were added to the cells at 0.13 μg/μl protein concentration; 2μM (-)isoproterenol (Sigma) was used as a reference to determine the maximal cAMP-response. To test the blocking-efficacy of β1EC2-CP on anti-β1EC2-induced adrenergic signaling, the different IgG-preparations were pre-incubated with β1EC2-CP (20 μg/μl) for 6 h at 4 °C; for pharmacological blockade of anti-β1EC2-induced signals we utilised 5.0μM bisoprolol.
(D) Immunostaining experiments with rat anti- β1EC2 (1:100) using HEK-cells stably expressing β1-ARs (HEK β1) or not (wild type; HEK WT). IgG was prepared from anti- β1EC2-positive rats or 0.9% NaCl-injected control rats. Amino-terminal β1AR-specific rabbit anti-bodies (1:250) served as positive controls. […] HEK β1-cells were transfected with the cAMP-sensor Epac1-camps, which reacts to cAMP-binding with a reduction in fluorescence resonance energy transfer (FRET) between its fluorophores cyan (CFP) and yellow fluorescent protein (YFP). […] Representative FRET-ratio traces of 1/5 experiments are shown. Values are given in % of maximal cAMP-response achieved with 0.3μM (-)isoproterenol (Iso).

CD4+ T-cells = test: Recall-assay with splenic CD4+ T-cells; assay type: cell-based, Lewis/CrlBR rats; conditions: 1.0 μg/ml β1EC2-CP; T-cells from spleens of treated and untreated rats; [3H]-thymidine (Fig. 5B-D)
Experimental: (a) Recall-assays with T-cells from spleens of immunised untreated vs. β1EC2-CP-treated animals were conducted as described in [60]. In brief, to purify CD4^+ T-cells from the splenic cell preparations, B-cells and CD8^+ T-cells were depleted by commercially available magnetic beads (MACS, Miltenyi Biotec, Bergisch-Gladbach, Germany) yielding a purity >85%. 1x10^5 of the purified CD4^+ T-cells were then co-incubated in 96-well plates with 1x10^6 irradiated thymic antigen presenting cells (prepared from a younger rat). Reagents added in the different assays were 1.0 μg/ml β1EC2-CP, 1.0 μg/ml tuberculin purified protein derivative (PPD, internal control), 1.0 μg/ml glutathion-S-transferase (GST), as well as 1.0 and 0.1 μg/ml GST/β1EC2-fusion proteins (FP), respectively. Measured T-cell reactivities were normalised to medium. After 48 h of incubation the cells were pulsed with 1.25 μCi/well [^3H]-thymidine and further incubated for 16 h before the cells were harvested; the DNA-incorporated radioactivity was measured using a beta-plate counter.
Fig 5 Immunology of cyclic β1EC2-peptides: fate of β1EC2-specific T- and B-cells. (A) Titer-course of anti-β1EC2-abs in β1EC2-CP-treated rats during the first 6 months of the prevention-study before and 24h after cyclopeptide-injection. […] For better readability error-bars are not shown in the graph. […]

CC(C)NCC(O)COc1ccc(COCCOC(C)C)cc1 (stereo not shown) [bisoprolol, reference compound]
decrease of heart rate (heart rate; oral dose 15 mg/kg/day derived from titration pre-experiments [5/10/15mg]): at least 10% | heart rate after bisoprolol (heart rate; titration pre-experiments [5/10/15mg], 15mg oral, from 236±10 bpm, n = 5, p<0.005): 205±9 bpm | cardiac β1-AR mRNA-levels, in words (β1-AR mRNA): returned to normal levels

CC(C)[C@@H]1NC(=O)[C@H](Cc2ccccc2)NC(=O)[C@H](CC(=O)O)NC(=O)[C@H](CS)NC(=O)[C@H](CS)NC(=O)[C@H](CCCCN)NC(=O)[C@@H]2CCCN2C(=O)[C@H](CC(=O)O)NC(=O)[C@H](CC(N)=O)NC(=O)[C@H](Cc2ccc(O)cc2)NC(=O)[C@H](CS)NC(=O)[C@H](CCCNC(=N)N)NC(=O)[C@H](CCCNC(=N)N)NC(=O)[C@H](C)NC(=O)[C@H](CCC(=O)O)NC(=O)[C@H](CC(=O)O)NC(=O)[C@H](CO)NC(=O)[C@H](CCC(=O)O)NC(=O)[C@H](C)NC(=O)[C@H](CCCNC(=N)N)NC(=O)[C@H](C)NC(=O)[C@H](CCC(N)=O)NC(=O)CNC(=O)[C@H](CCCNC(=N)N)NC(=O)[C@H](CC(N)=O)NC(=O)[C@H]([C@@H](C)O)NC1=O [β1EC2-CP] (cyclo(AESDEARRCYNDPKCCDFVTNRGQAR))
blockade of anti-β1EC2-induced cAMP-signals, in words [1]: inhibited | in vitro recall response of purified CD4+ T-cells, in words (CD4+ T-cells): clearly responded to the FP but not to β1EC2-CP | cardiac β1-AR mRNA-levels, in words (β1-AR mRNA): returned to normal levels

CC(C)[C@H](NC(=O)[C@H](Cc1ccccc1)NC(=O)[C@H](CC(=O)O)NC(=O)[C@H](CS)NC(=O)[C@H](CS)NC(=O)[C@H](CCCCN)NC(=O)[C@@H]1CCCN1C(=O)[C@H](CC(=O)O)NC(=O)[C@H](CC(N)=O)NC(=O)[C@H](Cc1ccc(O)cc1)NC(=O)[C@H](CS)NC(=O)[C@H](CCCNC(=N)N)NC(=O)[C@H](CCCNC(=N)N)NC(=O)[C@H](C)NC(=O)[C@H](CCC(=O)O)NC(=O)[C@H](CC(=O)O)NC(=O)[C@H](CO)NC(=O)[C@H](CCC(=O)O)NC(=O)[C@H](C)NC(=O)[C@H](CCCNC(=N)N)NC(=O)[C@H](C)N)C(=O)N[C@H](C(=O)N[C@@H](CC(N)=O)C(=O)N[C@@H](CCCNC(=N)N)C(=O)NCC(N)=O)[C@@H](C)O [β1EC2-Lin] (H-ARAESDEARRCYNDPKCCDFVTNRG-NH2; N-terminus and C-terminus assumed)
blockade of anti-β1EC2-induced cAMP-signals, in words [1]: inhibited
